From paper PMC7217150, “Synthesis, Modification, and Biological Evaluation of a Library of Novel Water‐Soluble Thiopyridone‐Based Organometallic Complexes and Their Unexpected (Biological) Behavior” (Chemistry (Weinheim an Der Bergstrasse, Germany), 2020)

Columns and labels:
Type in all cases: cell-based, human
SW480 [1] = test: MTT cytotoxicity assay, monolayer culture; conditions: SW480, MTT assay, exposure time 96 h, means ± SDs
Text: (§1) A549 (non‐small cell lung carcinoma), SW480 and HCT‐116 (both colon carcinoma) were kindly provided by Brigitte Marian, Institute of Cancer Research, Department of Medicine I, Medical University of Vienna, Austria. The cell line CH1/PA‐1 (ovarian teratocarcinoma) was kindly provided by Lloyd R. Kelland (CRC Centre for Cancer Therapeutics, Institute of Cancer Research, Sutton, UK). All cell culture media (including supplements) and reagents were obtained from Sigma–Aldrich, and all plasticware from StarLab, unless indicated otherwise.

A549 = test: MTT cytotoxicity assay, monolayer culture; conditions: exposure time 96 h, means ± SDs
Text: as §1

SW480 [2] = test: Cell cycle distribution, flow cytometry with propidium iodide; conditions: for Cell cycle distribution G1, % / Cell cycle distribution G2/M, % / Cell cycle distribution S, %: 24 h, mean ± SD; for Relative change in cell cycle distribution G1, % / Relative change in cell cycle distribution G2/M, % / Relative change in cell cycle distribution S, %: difference to untreated control
Protocol: (§2) The influence of two ligands, as well as seven complexes on cell cycle distribution was tested in two of the cancer cell lines (SW480, CH1/PA‐1) by means of flow cytometry. The cell cycle distribution (G1, S, G2/M phase in %; Table S37) was investigated upon DNA staining with propidium iodide.
(§3) CH1/PA‐1 and SW480 cells were harvested by trypsinization, 8×10^4 and 1.2×10^5 cells per well were seeded into 12‐well plates, respectively. The cells were allowed to attach and resume proliferation for 24 h after the seeding. […] After continuous exposure for 24 h at 37 °C and under 5 % CO2, the cells were harvested by trypsinization and centrifuged at 300 g for 3 min. The cells were washed with PBS (1 mL) and resuspended in propidium iodine (PI) containing HSF buffer (600 μL; 0.1 % Triton X‐100, 0.1 % sodium citrate, 50 μg mL^−1 PI in PBS). After incubation overnight at 4 °C in the dark, 5×10^3 cells were measured by flow cytometry with a Millipore Guava easyCyte 8HT instrument (Luminex, USA). Data were evaluated by means of FlowJo software (Tree Star) using Watson Pragmatic algorithms.60 The fitting of the curve was chosen to keep the root mean square error between 1.0 and 2.0, alongside with good fitting visual model.

CH1/PA‐1 [3] = test: as above; conditions: for Cell cycle distribution G1, % / Cell cycle distribution G2/M, % / Cell cycle distribution S, %: 24 h, mean ± SD; for Relative change in cell cycle distribution G1, % / Relative change in cell cycle distribution G2/M, % / Relative change in cell cycle distribution S, %: difference to untreated control
Protocol: as §2, §3

CH1/PA‐1 [4] = test: MTT cytotoxicity assay, monolayer culture; conditions: CH1/PA‐1, MTT assay, exposure time 96 h, means ± SDs
Text: as §1

Molecule: Cc1c(O)c(=S)ccn1Cc1ccccc1 [Compound 2 c, 3‐hydroxy‐2‐methyl‐1‐benzylpyridine‐4(1H)‐thione]
- IC50 (SW480 [1]; Homo sapiens): 280 ± 40 nM
- IC50 (A549; Homo sapiens): 790 ± 120 nM
- Cell cycle distribution G1, % (SW480 [2]; SW480, 5 µM): 30 ± 1%
- Cell cycle distribution G2/M, % (SW480 [2]; SW480, 5 µM): 31 ± 3%
- Cell cycle distribution S, % (SW480 [2]; SW480, 5 µM): 39 ± 2%
- Relative change in cell cycle distribution G1, % (SW480 [2]; SW480, 5 µM): -18%
- Relative change in cell cycle distribution G2/M, % (SW480 [2]; SW480, 5 µM): 12%
- Relative change in cell cycle distribution S, % (SW480 [2]; SW480, 5 µM): 6%
- Cell cycle distribution G1, % (SW480 [2]; SW480, 10 µM): 27 ± 3%
- Cell cycle distribution G2/M, % (SW480 [2]; SW480, 10 µM): 27 ± 3%
- Cell cycle distribution S, % (SW480 [2]; SW480, 10 µM): 45 ± 2%
- Relative change in cell cycle distribution G1, % (SW480 [2]; SW480, 10 µM): -21%
- Relative change in cell cycle distribution G2/M, % (SW480 [2]; SW480, 10 µM): 8%
- Relative change in cell cycle distribution S, % (SW480 [2]; SW480, 10 µM): 12%
- Cell cycle distribution G1, % (SW480 [2]; SW480, 20 µM): 34 ± 5%
- Cell cycle distribution G2/M, % (SW480 [2]; SW480, 20 µM): 17 ± 3%
- Cell cycle distribution S, % (SW480 [2]; SW480, 20 µM): 49 ± 1%
- Relative change in cell cycle distribution G1, % (SW480 [2]; SW480, 20 µM): -14%
- Relative change in cell cycle distribution G2/M, % (SW480 [2]; SW480, 20 µM): -2%
- Relative change in cell cycle distribution S, % (SW480 [2]; SW480, 20 µM): 16%
- decrease in G1 (SW480 [2]; SW480 cells, 2.5 μM): 18%
- Cell cycle distribution G1, % (CH1/PA‐1 [3]; CH1/PA-1, 2.5 µM): 43 ± 16%
- Cell cycle distribution G2/M, % (CH1/PA‐1 [3]; CH1/PA-1, 2.5 µM): 19 ± 9%
- Cell cycle distribution S, % (CH1/PA‐1 [3]; CH1/PA-1, 2.5 µM): 37 ± 5%
- Relative change in cell cycle distribution G1, % (CH1/PA‐1 [3]; CH1/PA-1, 2.5 µM): 3%
- Relative change in cell cycle distribution G2/M, % (CH1/PA‐1 [3]; CH1/PA-1, 2.5 µM): -5%
- Relative change in cell cycle distribution S, % (CH1/PA‐1 [3]; CH1/PA-1, 2.5 µM): 1%
- Cell cycle distribution G1, % (CH1/PA‐1 [3]; CH1/PA-1, 5 µM): 31 ± 5%
- Cell cycle distribution G2/M, % (CH1/PA‐1 [3]; CH1/PA-1, 5 µM): 32 ± 4%
- Cell cycle distribution S, % (CH1/PA‐1 [3]; CH1/PA-1, 5 µM): 37 ± 2%
- Relative change in cell cycle distribution G1, % (CH1/PA‐1 [3]; CH1/PA-1, 5 µM): -9%
- Relative change in cell cycle distribution G2/M, % (CH1/PA‐1 [3]; CH1/PA-1, 5 µM): 8%
- Relative change in cell cycle distribution S, % (CH1/PA‐1 [3]; CH1/PA-1, 5 µM): 1%
- Cell cycle distribution G1, % (CH1/PA‐1 [3]; CH1/PA-1, 10 µM): 31 ± 6%
- Cell cycle distribution G2/M, % (CH1/PA‐1 [3]; CH1/PA-1, 10 µM): 26 ± 10%
- Cell cycle distribution S, % (CH1/PA‐1 [3]; CH1/PA-1, 10 µM): 43 ± 8%
- Relative change in cell cycle distribution G1, % (CH1/PA‐1 [3]; CH1/PA-1, 10 µM): -9%
- Relative change in cell cycle distribution G2/M, % (CH1/PA‐1 [3]; CH1/PA-1, 10 µM): 2%
- Relative change in cell cycle distribution S, % (CH1/PA‐1 [3]; CH1/PA-1, 10 µM): 7%
- effect on cell cycle distribution, in words (CH1/PA‐1 [3]; CH1/PA‐1 cells): little effect
- decrease in G1 phase (CH1/PA‐1 [3]; CH1/PA‐1 cells, 10 μM): 9%

Molecule: Cc1c([O-])c(=S)ccn1C.Cc1ccc(C(C)C)cc1.[Cl-].[Os+2] [Compound 4 a, [Chlorido[1,2‐dimethyl‐3‐(oxo‐κO)‐pyridine‐4(1H)‐thionato‐κS](η^6‐p‐cymene)osmium(II)]]
- IC50 (SW480 [1]): > 200000 nM
- IC50 (CH1/PA‐1 [4]): 112000 ± 27000 nM
- IC50 (A549): > 200000 nM

Molecule: Cc1c(O)c(=S)ccn1-c1cccc2ccccc12 [Compound 2 d, 3‐hydroxy‐2‐methyl‐1‐(naphthalene‐1‐yl)pyridine‐4(1H)‐thione]
- IC50 (SW480 [1]; Homo sapiens): 350 ± 20 nM
- IC50 (CH1/PA‐1 [4]; Homo sapiens): 620 ± 80 nM
- IC50 (A549; Homo sapiens): 1600 ± 100 nM

Molecule: Chlorido[1‐(naphthalene‐1‐yl)‐2‐methyl‐3‐oxo‐κO‐pyridine‐4(1H)‐thionato‐κS](η^5‐1,2,3,4,5‐pentamethylcyclopentadienyl)iridium(III) [Compound 6 d]
- IC50 (SW480 [1]): 800 ± 150 nM
- IC50 (CH1/PA‐1 [4]): 680 ± 20 nM
- IC50 (A549): 2000 ± 400 nM

Molecule: Cc1c([O-])c(=S)ccn1-c1cccc2ccccc12.Cc1ccc(C(C)C)cc1.[Cl-].[Ru+2] [Compound 3 d, Chlorido[2‐methyl‐1‐(naphthalene‐1‐yl)‐3‐(oxo‐κO)‐pyridine‐4(1H)‐thionato‐κS](η^6‐p‐cymene)ruthenium(II)]
- IC50 (SW480 [1]): 4000 ± 300 nM
- IC50 (CH1/PA‐1 [4]): 1600 ± 300 nM
- IC50 (A549): 2100 ± 300 nM
